The results in this text go back to US20250340557A1, “PYRIMIDINE DERIVATIVE” (ASKA PHARMACEUTICAL CO., LTD., priority 2022, published 2025).

For the first assay, the target named is T1, human mPGES-1 (Homo sapiens, UniProt O14684).
T1 construct: made in house; host or cells: COS-1 cells (transient transfection; microsomal fraction used as enzyme)
T1 sequence (O14684 1-152): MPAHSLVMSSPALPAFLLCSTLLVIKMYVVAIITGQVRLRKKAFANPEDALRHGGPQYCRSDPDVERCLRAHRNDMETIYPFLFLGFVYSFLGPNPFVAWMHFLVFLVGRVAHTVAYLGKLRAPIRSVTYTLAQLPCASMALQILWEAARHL
Put plainly: Test for mPGES-1 inhibitory activity (microsomal enzyme, PGE2 EIA). The format is biochemical. Conditions: microsomes from COS-1 cells transfected with human mPGES-1 cDNA; substrate PGH2 1 μM; 4° C., 4 minutes; PGE2 measured by EIA; read-out: h mPGES1 IC50. How it is done:
Test Example 1: Test for mPGES-1 Inhibitory Activity
Microsomes were prepared from COS-1 cells transiently transfected with a plasmid containing human mPGES-1 cDNA, and used as mPGES-1 enzyme. The mPGES-1 enzyme was diluted with a sodium phosphate buffer (pH 7.2) containing reduced glutathione (2.5 mM) and EDTA (1 mM), DMSO or a DMSO solution of a test compound (final concentration of DMSO was 2%) was added to the enzyme, and the mixture was preincubated at 4° C. for 15 minutes. Then, PGH2 (Prostaglandin H2) as the substrate was added at a final concentration of 1 μM to start the enzymatic reaction, and after incubation at 4° C. for 4 minutes, a solution of ferric chloride (25 mM) and citric acid (50 mM) was added to terminate the enzymatic reaction. Generated PGE2 (Prostaglandin E2) was measured by using Prostaglandin E2 Express EIA Kit (Cayman Chemical). IC50 values were determined by using a standard method.
Take `CCc1cc(=O)[nH]c(-c2c(C(F)(F)F)ccc(CNC(=O)C3CCN(c4ccc(Cl)c(OC)c4)CC3)c2F)n1` [Example 98, 1-(4-chloro-3-methoxyphenyl)-N-[3-(4-ethyl-6-oxo-1,6-dihydropyrimidin-2-yl)-2-fluoro-4-(trifluoromethyl)benzyl]piperidine-4-carboxamide]: the concentration for half-maximal inhibition (IC50) worked out at 19 nM.
Same read-out and setting: the value for `CCc1cc(=O)[nH]c(-c2c(C(F)(F)F)ccc(CNC(=O)C3CCN(c4cccc(C)n4)CC3)c2F)n1` [Example 24, N-[3-(4-ethyl-6-oxo-1,6-dihydropyrimidin-2-yl)-2-fluoro-4-(trifluoromethyl)benzyl]-1-(6-methylpyridin-2-yl)piperidine-4-carboxamide] was 76 nM; that for `O=c1cc(C(F)(F)F)nc(-c2c(C(F)(F)F)ccc(CNC(=O)[C@H]3CC[C@H](OCc4cc(F)cc(Cl)c4)CC3)c2F)[nH]1` [Example 119, trans-4-[(3-chloro-5-fluorobenzyl)oxy]-N-{2-fluoro-3-[6-oxo-4-(trifluoromethyl)-1,6-dihydropyrimidin-2-yl]-4-(trifluoromethyl)benzyl}cyclohexane-1-carboxamide] was less than 1 nM; that for `Cc1cccc2ccc(N3CCC(C(=O)NCc4ccc(C(F)(F)F)c(-c5nccc(=O)[nH]5)c4F)CC3)nc12` [Example 7, N-[2-fluoro-3-(6-oxo-1,6-dihydropyrimidin-2-yl)-4-(trifluoromethyl)benzyl]-1-(8-methylquinolin-2-yl)piperidine-4-carboxamide] was less than 1 nM.
Still for that read-out and setting: the value for `O=c1cc(C(F)F)nc(-c2c(C(F)(F)F)ccc(CNC(=O)[C@H]3CC[C@H](OCc4ccccc4Cl)CC3)c2F)[nH]1` [Example 103, trans-4-[(2-chlorobenzyl)oxy]-N-{3-[4-(difluoromethyl)-6-oxo-1,6-dihydropyrimidin-2-yl]-2-fluoro-4-(trifluoromethyl)benzyl}cyclohexane-1-carboxamide] was less than 1 nM; that for `O=C(NCc1ccc(C(F)(F)F)c(-c2nc(C(F)(F)F)cc(=O)[nH]2)c1F)C1CCN(c2ccc(OC(F)(F)F)cn2)CC1` [Example 40, N-{2-fluoro-3-[6-oxo-4-(trifluoromethyl)-1,6-dihydropyrimidin-2-yl]-4-(trifluoromethyl)benzyl}-1-[5-(trifluoromethoxy)pyridin-2-yl]piperidine-4-carboxamide] was 15 nM.
Turning to `CCc1nc(-c2c(C(F)(F)F)ccc(CNC(=O)C3CCN(c4ccc(Cl)cc4)CC3)c2F)[nH]c(=O)c1F` [Example 79, 1-(4-chlorophenyl)-N-[3-(4-ethyl-5-fluoro-6-oxo-1,6-dihydropyrimidin-2-yl)-2-fluoro-4-(trifluoromethyl)benzyl]piperidine-4-carboxamide], the IC50 was determined as 56 nM.
Same read-out and setting: the value for `O=C(NCc1ccc(C(F)(F)F)c(-c2nc(C(F)F)cc(=O)[nH]2)c1F)C1CCN(c2ccc(OC(F)(F)F)cc2)CC1` [Example 85, N-{3-[4-(difluoromethyl)-6-oxo-1,6-dihydropyrimidin-2-yl]-2-fluoro-4-(trifluoromethyl)benzyl}-1-[4-(trifluoromethoxy)phenyl]piperidine-4-carboxamide] was 0.61 nM; that for `Cc1cccc(N2CCC(C(=O)NCc3ccc(C(F)(F)F)c(-c4nc(C(F)(F)F)cc(=O)[nH]4)c3F)CC2)n1` [Example 17, N-{2-fluoro-3-[6-oxo-4-(trifluoromethyl)-1,6-dihydropyrimidin-2-yl]-4-(trifluoromethyl)benzyl}-1-(6-methylpyridin-2-yl)piperidine-4-carboxamide] was less than 10 nM; that for `Cc1cc(=O)[nH]c(-c2c(C(F)(F)F)ccc(CNC(=O)[C@H]3CC[C@H](OCc4cc(F)cc(F)c4)CC3)c2F)n1` [Example 120, trans-4-[(3,5-difluorobenzyl)oxy]-N-[2-fluoro-3-(4-methyl-6-oxo-1,6-dihydropyrimidin-2-yl)-4-(trifluoromethyl)benzyl]cyclohexane-1-carboxamide] was 11 nM.
Still for that read-out and setting: under `O=C(NCc1ccc(C(F)(F)F)c(-c2nc(C(F)(F)F)cc(=O)[nH]2)c1F)C1CCN(c2ccc(C(F)(F)F)nc2)CC1` [Example 21, N-{2-fluoro-3-[6-oxo-4-(trifluoromethyl)-1,6-dihydropyrimidin-2-yl]-4-(trifluoromethyl)benzyl}-1-[6-(trifluoromethyl)pyridin-3-yl]piperidine-4-carboxamide] stands less than 1 nM.

Staying with this assay, now noted: microsomes of COS-1 cells transfected with human mPGES-1 cDNA; PGH2 1 μM; 4° C., 4 minutes; PGE2 by EIA; read-out: h mPGES1 IC50.
Turning to `O=C(Cc1ccc(C(F)(F)F)cc1)NCc1ccc(C(F)(F)F)c(-c2nc(C(F)(F)F)cc(=O)[nH]2)c1F` [Example 283, N-{2-fluoro-3-[6-oxo-4-(trifluoromethyl)-1,6-dihydropyrimidin-2-yl]-4-(trifluoromethyl)benzyl}-2-[4-(trifluoromethyl)phenyl]acetamide], the IC50 was determined as 1.5 nM.
`O=c1cc(C(F)F)nc(-c2c(C(F)(F)F)ccc(CNC(=O)[C@H]3C[C@H](OCc4cccc(C(F)(F)F)c4)C3)c2F)[nH]1` [Example 165, trans-N-{3-[4-(difluoromethyl)-6-oxo-1,6-dihydropyrimidin-2-yl]-2-fluoro-4-(trifluoromethyl)benzyl}-3-{[3-(trifluoromethyl)benzyl]oxy}cyclobutane-1-carboxamide]: the concentration for half-maximal inhibition (IC50) is less than 1 nM.
Same read-out and setting: under `CCc1nc(-c2c(C(F)(F)F)ccc(CNC(=O)[C@H]3C[C@H](OCc4cc(F)cc(Cl)c4)C3)c2F)[nH]c(=O)c1F` [Example 245, trans-3-[(3-chloro-5-fluorobenzyl)oxy]-N-[3-(4-ethyl-5-fluoro-6-oxo-1,6-dihydropyrimidin-2-yl)-2-fluoro-4-(trifluoromethyl)benzyl]cyclobutane-1-carboxamide] stands less than 1 nM; under `Cc1cc(=O)[nH]c(-c2c(C(F)(F)F)ccc(CNC(=O)[C@H]3C[C@H](OCc4ccc(Cl)cc4F)C3)c2F)n1` [Example 185, trans-3-[(4-chloro-2-fluorobenzyl)oxy]-N-[2-fluoro-3-(4-methyl-6-oxo-1,6-dihydropyrimidin-2-yl)-4-(trifluoromethyl)benzyl]cyclobutane-1-carboxamide], 1.2 nM; under `O=c1cc(C(F)F)nc(-c2c(C(F)(F)F)ccc(CNC(=O)[C@H]3C[C@H](OCc4cccc(F)c4)C3)c2F)[nH]1` [Example 171, trans-N-{3-[4-(difluoromethyl)-6-oxo-1,6-dihydropyrimidin-2-yl]-2-fluoro-4-(trifluoromethyl)benzyl}-3-[(3-fluorobenzyl)oxy]cyclobutane-1-carboxamide], less than 1 nM.
Take `Cc1nc(-c2c(C(F)(F)F)ccc(CNC(=O)[C@H]3C[C@H](OCc4cccc(F)c4)C3)c2F)[nH]c(=O)c1F` [Example 222, trans-N-[2-fluoro-3-(5-fluoro-4-methyl-6-oxo-1,6-dihydropyrimidin-2-yl)-4-(trifluoromethyl)benzyl]-3-[(3-fluorobenzyl)oxy]cyclobutane-1-carboxamide]: the IC50 is 15 nM.
On the same count and under the same terms, the value for `CCc1cc(=O)[nH]c(-c2c(C(F)(F)F)ccc(CNC(=O)[C@H]3C[C@H](OCc4cc(F)cc(F)c4)C3)c2F)n1` [Example 204, trans-3-[(3,5-difluorobenzyl)oxy]-N-[3-(4-ethyl-6-oxo-1,6-dihydropyrimidin-2-yl)-2-fluoro-4-(trifluoromethyl)benzyl]cyclobutane-1-carboxamide] was 13 nM; that for `Cc1cc(=O)[nH]c(-c2c(C(F)(F)F)ccc(CNC(=O)[C@H]3C[C@H](OCc4ccc(F)c(Cl)c4)C3)c2F)n1` [Example 193, trans-3-[(3-chloro-4-fluorobenzyl)oxy]-N-[2-fluoro-3-(4-methyl-6-oxo-1,6-dihydropyrimidin-2-yl)-4-(trifluoromethyl)benzyl]cyclobutane-1-carboxamide] was less than 1 nM; that for `Cc1cc(=O)[nH]c(-c2c(C(F)(F)F)ccc(CNC(=O)[C@H]3C[C@H](OCc4cccc(Cl)c4F)C3)c2F)n1` [Example 191, trans-3-[(3-chloro-2-fluorobenzyl)oxy]-N-[2-fluoro-3-(4-methyl-6-oxo-1,6-dihydropyrimidin-2-yl)-4-(trifluoromethyl)benzyl]cyclobutane-1-carboxamide] was less than 1 nM.
As to `O=C(NCc1ccc(C(F)(F)F)c(-c2nc(C(F)(F)F)cc(=O)[nH]2)c1F)C1CCN(C(=O)Cc2ccc(F)cc2)CC1` [Example 275, N-{2-fluoro-3-[6-oxo-4-(trifluoromethyl)-1,6-dihydropyrimidin-2-yl]-4-(trifluoromethyl)benzyl}-1-[2-(4-fluorophenyl)acetyl]piperidine-4-carboxamide], the IC50 was 0.94 nM.
Same read-out and setting: under `O=c1cc(C(F)(F)F)nc(-c2c(C(F)(F)F)ccc(CNC(=O)[C@H]3C[C@H](OCc4cc(Cl)ccc4F)C3)c2F)[nH]1` [Example 156, trans-3-[(5-chloro-2-fluorobenzyl)oxy]-N-{2-fluoro-3-[6-oxo-4-(trifluoromethyl)-1,6-dihydropyrimidin-2-yl]-4-(trifluoromethyl)benzyl}cyclobutane-1-carboxamide] stands less than 1 nM.
